Reference: patent US12201632B2, “Levoketoconazole for treatment of congenital adrenal hyperplasia and primary aldosteronism” (Strongbridge Dublin Limited, priority 2018, dated 2025)

Key:
AtT20 cells = assay: ACTH secretion corrected for cell amount in AtT20 cells; format: cell-based, mouse
Method: Human adrenocortical carcinoma HAC15 and mouse corticotroph AtT20 cells were used, purchased as a kind gift by Dr. W. Rainey, and obtained from Dr. J. Tooze (European Organization for Molecular Biology), respectively. Both cell lines were cultured in 75 cm^2 flasks at 37° C. in a humidified incubator (Greiner Bio-One, Alphen a/d Rijn, the Netherlands) at 5% CO2. Dulbecco's Modified Eagle Medium F12 containing 5% fetal calf serum was used for HAC15, whereas AtT20 cells were cultured in Dulbecco's minimal essential medium (DMEM) supplemented with 10% fetal calf serum. Both mediums were supplemented with L-glutamine (2 mmol/L) and penicillin (10^5 U/L). Short tandem repeat (str) profiling using a Powerplex Kit (Promega, Leiden, the Netherlands) of HAC15 and AtT20 gave results consistent with the ATCC database, confirming the identity of both cell lines. Medium and supplements were obtained from Invitrogen, Breda, the Netherlands. Once a week, cells were harvested with trypsin (0.05%)-EDTA (0.53 mM) and resuspended in culture medium. Levoketoconazole (COR-003) and racemic ketoconazole (both from Cortendo AB) were dissolved in absolute ethanol (EtOH), according to manufacturer's instructions, and stored at −20° C. at a stock concentration of […]. At the start of each experiment, both drugs were freshly prepared and diluted in EtOH in the correct concentrations. Synacten (synthetic ACTH, Novartis Pharma A.G.) stock concentration was stored at 4° C. and dissolved in culture medium at the day of use. The final concentrations of ACTH were chosen based on a dose-response curve in HAC15 cells and previously reported studies in the literature. For HAC15, 200,000 and 100,000 cells were plated in 0.5 ml medium in 24 well plates for experiments of 1 and 3 days, respectively. […]
At the end of the AtT20 and primary pituitary adenoma culture experiments, medium was collected and supplemented with 1% of the protease inhibitor Trasylol to prevent degradation of ACTH. ACTH was measured using a commercially available, nonisotopic automatic chemiluminescence system (DPC Immulite).

HAC15 cells = assay: Cell number (DNA) of HAC15 cells; format: cell-based, Human; settings: HAC15, 1 or 3 days, with or without ACTH
Method: Human adrenocortical carcinoma HAC15 and mouse corticotroph AtT20 cells were used, purchased as a kind gift by Dr. W. Rainey, and obtained from Dr. J. Tooze (European Organization for Molecular Biology), respectively. Both cell lines were cultured in 75 cm^2 flasks at 37° C. in a humidified incubator (Greiner Bio-One, Alphen a/d Rijn, the Netherlands) at 5% CO2. Dulbecco's Modified Eagle Medium F12 containing 5% fetal calf serum was used for HAC15, whereas AtT20 cells were cultured in Dulbecco's minimal essential medium (DMEM) supplemented with 10% fetal calf serum. Both mediums were supplemented with L-glutamine (2 mmol/L) and penicillin (10^5 U/L). Short tandem repeat (str) profiling using a Powerplex Kit (Promega, Leiden, the Netherlands) of HAC15 and AtT20 gave results consistent with the ATCC database, confirming the identity of both cell lines. Medium and supplements were obtained from Invitrogen, Breda, the Netherlands. Once a week, cells were harvested with trypsin (0.05%)-EDTA (0.53 mM) and resuspended in culture medium. […]
As a measure of cell number, DNA concentrations were determined using the bisbenzimide fluorescent dye (Hoechst 33258, Sigma Aldrich), as previously described.

Compound	inhibition at 10 µM (AtT20 cells; Mus musculus, 168 h, AtT20, 7 days of treatment with 10 μM, corrected for cell amount, read-out: Maximal inhibition of ACTH secretion)	effects on cell number (HAC15 cells)	Maximal inhibition of ACTH secretion (AtT20 cells; AtT20, 7 days of treatment with 10 μM, corrected for cell amount)	ACTH secretion corrected for cell amount (AtT20 cells; AtT20, after 3 days of treatment)
CC(=O)N1CCN(c2ccc(OCC3COC(Cn4ccnc4)(c4ccc(Cl)cc4Cl)O3)cc2)CC1 (racemic) [racemic ketoconazole, Ketoconazole]	34%	no effects		
CC(=O)N1CCN(c2ccc(OC[C@@H]3CO[C@@](Cn4ccnc4)(c4ccc(Cl)cc4Cl)O3)cc2)CC1 (relative stereo) [levoketoconazole, 2S,4R cis-1-acetyl-4-[4-[[2-(2,4-dichlorophenyl)-2-(1H-imidazol-1-ylmethyl)-1,3-dioxolan-4-yl]methoxyl]phenyl]piperazine]		no effects	38%	showed inhibition of ACTH secretion
